The values that follow come from PubChem BioAssay (NCI).

Common to all, as to test: inhibition of tumour cell growth, NCI panel, 48 h
For experiment [1], the system named is A498 renal.
Experiment [2] concerns ACHN renal.
The test system of experiment [3] is CCRF-CEM leukemia.
The subject of experiment [4] is DU-145 prostate.
In experiment [5] the test system is EKVX NSCLC.
For experiment [6], the system named is HCT-15 colon.
Experiment [7] deals with MALME-3M melanoma.
For experiment [8], the system named is MCF7 breast.
Experiment [9] has as its system MDA-MB-231 breast.
The subject of experiment [10] is NCI-H23 lung.
Experiment [11] relates to OVCAR-3 ovarian.
The subject of experiment [12] is OVCAR-4 ovarian.
Experiment [13] deals with SF-268 CNS.
In experiment [14] the test system is SF-295 CNS.
Experiment [15] concerns SF-539 CNS.
Experiment [16] has as its system SK-MEL-2 melanoma.
Experiment [17] concerns SW-620 colon.
The test system of experiment [18] is T-47D breast.
Experiment [19] concerns U251 CNS.
Experiment [20] has as its system UACC-62 melanoma.

Each structure is given as a SMILES string.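 Protocol summary: plate cells (96-well), add compound at 5 concentrations, incubate 48 h, interpolate endpoints linearly. The concentration for full growth arrest is given as TGI.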

As to `OC[P+](CO)(CO)C12CC3CC(CC(C3)C1)C2`, the TGI was > 100 µM in experiment [1]; > 100 µM in [2]; 62.2 µM in experiment [3]; > 100 µM in experiment [4]; > 100 µM in experiment [5]; > 100 µM in [6]. The TGI in [7], in [8], in experiment [9], in experiment [10], in [11] and in [12] was > 100 µM throughout. For the same compound, the TGI in [13], in [14], in experiment [15], in experiment [16], in experiment [17] and in experiment [18] was > 100 µM each time. The TGI in experiment [19] and in experiment [20] was > 100 µM throughout.

On to `O=C(SC1=NCCN1)c1cccc2ccccc12`, for which the TGI in experiment [1] is > 100 µM; in experiment [2], > 100 µM; in experiment [3] it was 70.1 µM; in experiment [4] it was > 100 µM; in experiment [5], > 100 µM; in [6] it was > 100 µM. The TGI in [7], in [8], in experiment [9], in experiment [10], in experiment [11] and in [12] was > 100 µM each time. The TGI in experiment [13], in experiment [14], in [15], in [16], in [17] and in experiment [18] was > 100 µM in each case. Besides, the TGI in [19] and in experiment [20] was > 100 µM throughout.

`C=C1CCCC(C)(C)C1CCC1(C)CCC(C(C)C(=O)OC)OO1` (centres undefined): the TGI was > 15.3 µM in experiment [1]; 2.75 µM in experiment [2]; > 18 µM in experiment [3]; 8.63 µM in experiment [4]; 21.8 µM in experiment [5]; > 25 µM in experiment [6]. In addition, the TGI in experiment [7] was > 25 µM; in experiment [8], > 25 µM; in [9] it was > 25 µM; in experiment [10], 8.99 µM; in experiment [11], > 25 µM; in [12], 17.4 µM. Further, the TGI in experiment [13] is 7.77 µM; in experiment [14] it was 10.2 µM; in [15], > 22.2 µM; in experiment [16], > 25 µM; in experiment [17], 24.2 µM; in experiment [18] it was 11.7 µM. Moreover, the TGI in experiment [19] was 7.21 µM; in experiment [20], > 15.5 µM.

Take `COc1ccc2[nH]cc(C(=O)C(=O)NC34CC5CC(CC(C5)C3)C4)c2c1`: the TGI was > 76.1 µM in [1]; > 100 µM in experiment [2]; 29.9 µM in experiment [3]; > 100 µM in [4]; > 100 µM in [5]; > 90.3 µM in [6]. Also, the TGI was > 100 µM in [7]; > 31.6 µM in experiment [8]; 97.9 µM in experiment [9]; > 100 µM in [10]; > 49.5 µM in experiment [11]; > 100 µM in experiment [12]. For the same compound, the TGI in [13] is > 100 µM; in experiment [14], > 54.6 µM; in [15], > 81.1 µM; in [16] it was > 100 µM; in experiment [17], > 100 µM; in experiment [18], > 100 µM. Besides, the TGI in experiment [19] is > 85.3 µM; in experiment [20] it was > 69.4 µM.

On to `N#Cc1cc([N+](=O)[O-])ccc1NC(=O)/C(=N\NC(=O)c1ccncc1)C(c1cnc2ccc([N+](=O)[O-])cc2n1)[N+](=O)[O-]` (centres undefined), for which the TGI in experiment [1] was 17.7 µM; in experiment [2] it was 9.14 µM; in experiment [3], 25.6 µM; in [4], 11.8 µM; in experiment [5] it was 25.1 µM; in [6], 5.22 µM. Further, the TGI in experiment [7] was determined as 2.61 µM; in experiment [8], 3.37 µM; in experiment [9] it was 5.36 µM; in experiment [10], 2.65 µM; in experiment [11], 4.29 µM; in experiment [12], 5.76 µM. Further, the TGI in experiment [13] came to 11.6 µM; in experiment [14] it was 4 µM; in experiment [15], 3.63 µM; in [16] it was 3.73 µM; in experiment [17] it was 5.5 µM; in experiment [18] it was 18.4 µM. Further, the figures for the TGI in experiment [19] and in experiment [20] were 6.63 µM and 2.96 µM, respectively.

Regarding `Cc1cc(C)c(O)c(CN2CCN(C(C)C)CCN(C(C)C)CC2)c1`, the TGI in [1] was > 100 µM; in experiment [2], > 100 µM; in [3], 83.9 µM; in experiment [4], > 100 µM; in [5], > 100 µM; in [6], > 100 µM. For the same compound, the TGI in [7] was 31.9 µM; in experiment [8], > 100 µM; in experiment [9], > 100 µM; in [11], > 100 µM; in experiment [12], > 100 µM; in experiment [13], > 100 µM. The TGI in experiment [14] was 85.3 µM; in [15] it was 30.8 µM; in experiment [16] it was > 100 µM; in [17] it was > 100 µM; in experiment [18], 61 µM; in experiment [19], > 100 µM. In [20], the TGI was > 100 µM.

As for `COC(=O)C1=C(OC(=O)/C(=C/c2ccccc2)c2ccc(Cl)cc2)C(C(=O)OC)[C@@]2(O)[C@@H](C(=O)OC)[C@H](C)C[C@@H]1[C@@H]2C(=O)OC` (some centres undefined), the TGI in experiment [1], in experiment [2], in experiment [3], in experiment [4], in [5] and in experiment [6] was > 100 µM in each case. Moreover, the TGI in experiment [7], in [8], in experiment [9], in experiment [10], in experiment [11] and in [12] was > 100 µM throughout. The TGI in experiment [13], in experiment [14], in experiment [15], in experiment [16], in experiment [17] and in [18] was > 100 µM each time. Moreover, the TGI in experiment [19] and in experiment [20] was > 100 µM in each case.
